Results published in patent publication US11214803B2, “Modulators of YAP1 expression” (Ionis Pharmaceuticals, Inc., priority 2019, dated 2022).
Strand notation (5' to 3'): a small letter for the sugar, then the base; units joined by * are phosphorothioate-linked, units joined directly phosphodiester-linked; [ ] holds rarer units or linkages, { } end groups; capitals alone tell only the bases. k = constrained ethyl (cEt); [5mC] = 5-methylcytosine; d = 2'-deoxy (DNA)

Test system: Yap1 mRNA
Experiment: Antisense inhibition of human Yap1 in A-431 cells by cEt gapmers, single dose (Example 2, RTS4814)
Type: cell-based
Conditions: Table 5; A-431 cells, 5,000 cells per well, free uptake, 2,000 nM modified oligonucleotide, approx. 48 hours; RTS4814; normalized to RIBOGREEN; Yap1 mRNA relative to untreated control cells
Summary of the method: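 Yap1 mRNA levels, by real-time RT-PCR (RTS4814) and corrected for total RNA via RIBOGREEN, are given as percent of untreated cells. Gapmers (16-mer, cEt wings, phosphorothioate, 5-methylC) were delivered without transfection at 2,000 nM to A-431 cells for about 48 hours.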

Substance | YAP1 (% UTC)
716374 (kG*kG*kT*d[5mC]*dA*dG*dT*dG*dT*d[5mC]*d[5mC]*d[5mC]*dA*kG*kG*kA; antisense) [Compound 716374] | 54
716428 (kA*k[5mC]*kA*dG*dG*d[5mC]*dT*d[5mC]*dA*d[5mC]*dT*dT*d[5mC]*k[5mC]*k[5mC]*k[5mC]; antisense) [Compound 716428] | 10
716485 (kA*k[5mC]*kT*dA*d[5mC]*d[5mC]*dA*dA*dT*dA*dT*dA*d[5mC]*kA*kT*kT; antisense) [Compound 716485] | 84
716446 (kG*k[5mC]*kA*d[5mC]*dA*d[5mC]*d[5mC]*d[5mC]*dA*d[5mC]*dA*dA*dA*kA*kT*kT; antisense) [Compound 716446] | 83

Same assay, conditions: Table 6; A-431 cells, 5,000 cells per well, free uptake, 2,000 nM modified oligonucleotide, approx. 48 hours; RTS4814; normalized to RIBOGREEN; Yap1 mRNA relative to untreated control cells

Substance | YAP1 (% UTC)
716348 (kA*k[5mC]*kG*dG*dA*dG*dG*d[5mC]*d[5mC]*dG*dG*dA*d[5mC]*kA*kG*k[5mC]; antisense) [Compound 716348] | 107
716411 (kT*k[5mC]*kT*dG*d[5mC]*dT*dG*dT*dG*dA*dG*dG*dG*k[5mC]*kA*kG; antisense) [Compound 716411] | 102

Same assay, conditions: Table 18; A-431 cells, 5,000 cells per well, free uptake, 2,000 nM modified oligonucleotide, approx. 48 hours; RTS4814; normalized to RIBOGREEN; Yap1 mRNA as percent of untreated control

Substance | YAP1 (% UTC)
1076548 (antisense k[5mC]*kA*k[5mC]*d[5mC]*dA*dA*d[5mC]*d[5mC]*dT*dG*dT*dT*dA*kA*kG*kG) [Compound 1076548] | 106
1074340 (antisense kT*k[5mC]*k[5mC]*d[5mC]*dG*dG*dG*dA*dG*dA*dA*dG*dA*k[5mC]*kA*k[5mC]) [Compound 1074340] | 120

Same assay, conditions: Table 19; A-431 cells, 5,000 cells per well, free uptake, 2,000 nM modified oligonucleotide, approx. 48 hours; RTS4814; normalized to RIBOGREEN; Yap1 mRNA as percent of untreated control

Substance | YAP1 (% UTC)
1076325 (k[5mC]*kT*kA*dA*dT*dA*dA*dT*dG*dG*dA*dA*dG*kA*kG*kT; antisense) [Compound 1076325] | 16
1075237 (antisense kG*k[5mC]*kT*dG*dA*dA*dA*dA*dT*dG*d[5mC]*dT*dA*kA*k[5mC]*kT) [Compound 1075237] | 105

Same assay, conditions: Table 20; Yap1 mRNA, percent of untreated control; 3-10-3 cEt gapmers targeting SEQ ID NO.: 1 and 2

Substance | YAP1 (% UTC)
1075494 (antisense kT*k[5mC]*kT*d[5mC]*dA*dA*d[5mC]*dA*dA*dT*dT*dT*dG*k[5mC]*kT*kA) [Compound 1075494] | 47

Same assay, conditions: Table 21; Yap1 mRNA, percent of untreated control; 3-10-3 cEt gapmers targeting SEQ ID NO.: 1 and 2

Substance | YAP1 (% UTC)
1075719 (k[5mC]*kT*kA*dA*dA*dA*d[5mC]*d[5mC]*dG*dG*d[5mC]*dT*dG*kG*kA*k[5mC]; antisense) [Compound 1075719] | 76
1074631 (antisense k[5mC]*kA*kT*dA*dG*d[5mC]*dA*dG*d[5mC]*dT*dT*dT*dT*kG*k[5mC]*k[5mC]) [Compound 1074631] | 9
1074471 (k[5mC]*k[5mC]*k[5mC]*d[5mC]*d[5mC]*d[5mC]*d[5mC]*dA*d[5mC]*d[5mC]*dG*dA*d[5mC]*k[5mC]*k[5mC]*kT; antisense) [Compound 1074471] | 69
1075047 (antisense kT*kA*kA*dA*dA*dT*dT*dA*dG*dA*d[5mC]*dT*d[5mC]*k[5mC]*k[5mC]*k[5mC]) [Compound 1075047] | 7

Same assay, conditions: Table 22; Yap1 mRNA as percent of untreated control; 3-10-3 cEt gapmers; single dose

Substance | YAP1 (% UTC)
1075048 (antisense kG*kT*kA*dA*dA*dA*dT*dT*dA*dG*dA*d[5mC]*dT*k[5mC]*k[5mC]*k[5mC]) [Compound 1075048] | 4
1075912 (kA*kG*kT*dT*dA*dT*dA*d[5mC]*dA*d[5mC]*dA*dA*d[5mC]*k[5mC]*kA*k[5mC]; antisense) [Compound 1075912] | 13
1074856 (antisense kT*kT*kT*dG*dA*d[5mC]*dA*dA*dG*dT*dG*dT*dG*k[5mC]*kA*kT) [Compound 1074856] | 15
1075400 (antisense kT*kA*kG*d[5mC]*dA*dA*dT*dA*dG*dT*d[5mC]*dA*dG*kG*kT*kA) [Compound 1075400] | 11
1076264 (kA*k[5mC]*k[5mC]*d[5mC]*dA*dA*dT*dA*dA*d[5mC]*d[5mC]*dA*dA*kG*kT*kG; antisense) [Compound 1076264] | 40
1075816 (kT*kA*kG*dT*dA*dT*dA*dA*dA*dG*d[5mC]*dA*dG*kG*kG*k[5mC]; antisense) [Compound 1075816] | 7

Same assay, conditions: Table 23; Yap1 mRNA as percent of untreated control; 3-10-3 cEt gapmers; single dose

Substance | YAP1 (% UTC)
1076329 (kA*kA*kT*dT*dA*dT*dA*d[5mC]*dT*dG*dG*d[5mC]*dT*kA*k[5mC]*kT; antisense) [Compound 1076329] | 14
1076233 (k[5mC]*k[5mC]*kA*dA*dT*dA*dA*dA*dG*d[5mC]*dA*dA*dG*kT*kA*kG; antisense) [Compound 1076233] | 13
1076137 (k[5mC]*kA*k[5mC]*d[5mC]*dA*dA*d[5mC]*dA*dA*d[5mC]*d[5mC]*dT*d[5mC]*kA*kT*kG; antisense) [Compound 1076137] | 45
1075881 (kG*kA*kT*dT*dA*dA*d[5mC]*dT*dA*d[5mC]*dA*d[5mC]*d[5mC]*kA*k[5mC]*kG; antisense) [Compound 1075881] | 23
1074761 (kT*kA*k[5mC]*d[5mC]*d[5mC]*dA*dA*dT*dA*d[5mC]*dA*dA*d[5mC]*k[5mC]*kA*kA; antisense) [Compound 1074761] | 15

Same assay, conditions: Table 24; Yap1 mRNA as percent of untreated control; 3-10-3 cEt gapmers targeting SEQ ID NO.: 1, and 2

Substance | YAP1 (% UTC)
1075434 (antisense kG*kT*kA*dA*dA*dA*dG*dA*dG*dG*dT*dG*d[5mC]*kA*kT*k[5mC]) [Compound 1075434] | 96
1075178 (antisense k[5mC]*kT*kG*dG*dA*dA*dG*dA*dA*dA*dT*dT*dA*k[5mC]*k[5mC]*k[5mC]) [Compound 1075178] | 47
1074378 (antisense kG*kA*kA*dA*d[5mC]*dG*dG*dT*dT*d[5mC]*dT*dG*d[5mC]*kT*kG*kT) [Compound 1074378] | 31

Same assay, conditions: Table 25; Yap1 mRNA as percent of untreated control; 3-10-3 cEt gapmers targeting SEQ ID NO.: 1, and 2

Substance | YAP1 (% UTC)
1075819 (kG*kT*kA*dT*dA*dT*d[5mC]*d[5mC]*dG*dT*dT*d[5mC]*dT*k[5mC]*kA*kT; antisense) [Compound 1075819] | 2
1075531 (k[5mC]*kT*kT*dA*dA*dT*dA*dG*dT*dT*dT*dA*dA*k[5mC]*k[5mC]*kT; antisense) [Compound 1075531] | 66
1075275 (antisense k[5mC]*kT*kA*dG*dA*dA*dA*dG*dG*d[5mC]*d[5mC]*dA*dT*kG*kT*kA) [Compound 1075275] | 76

Same assay, conditions: Table 32; Yap1 mRNA, percent of untreated control; 3-10-3 cEt gapmers targeting SEQ ID NO.: 1, and 2

Substance | YAP1 (% UTC)
1074162 (kA*kG*kG*d[5mC]*dG*dA*dG*d[5mC]*dG*dA*dG*dG*dG*k[5mC]*kT*kA; antisense) [compound 1074162] | 101

Same assay, conditions: Table 33; Yap1 mRNA, percent of untreated control; 3-10-3 cEt gapmers targeting SEQ ID NO.: 1, and 2

Substance | YAP1 (% UTC)
1075443 (antisense kG*kA*kT*dT*dA*dA*d[5mC]*dA*dG*dA*dG*d[5mC]*dT*kA*kG*kA) [compound 1075443] | 29
1076403 (antisense kA*kT*kT*dT*dA*dA*dG*dA*d[5mC]*d[5mC]*dT*dG*dG*kT*kG*kA) [compound 1076403] | 26
1074835 (k[5mC]*kT*kT*dG*d[5mC]*dG*dA*dG*dG*dA*dT*dA*dA*kA*kA*kT; antisense) [compound 1074835] | 30

Same assay, conditions: Yap1 mRNA as percent of untreated control; A-431 cells; 3-10-3 cEt gapmers targeting SEQ ID NO.: 1, and 2; Table 30

Substance | YAP1 (% UTC)
1076368 (antisense k[5mC]*kA*kT*dT*dT*dT*dA*dT*dG*dT*dA*dA*dG*kG*k[5mC]*k[5mC]) [compound 1076368] | 15
1075984 (kT*kA*kT*d[5mC]*dG*dA*dA*dA*dA*dG*d[5mC]*dA*dA*kA*k[5mC]*kT; antisense) [compound 1075984] | 44
1075184 (k[5mC]*kA*kA*dG*dA*dA*d[5mC]*dA*d[5mC]*dT*dG*dG*dT*kA*kT*kT; antisense) [compound 1075184] | 67

Same assay, conditions: Yap1 mRNA as percent of untreated control; A-431 cells; 3-10-3 cEt gapmers targeting SEQ ID NO.: 1, and 2; Table 31

Substance | YAP1 (% UTC)
1076337 (antisense kA*kT*kT*dA*dA*dA*d[5mC]*d[5mC]*dA*dG*dG*dG*dA*k[5mC]*kT*kG) [compound 1076337] | 25
1074833 (kT*kG*k[5mC]*dG*dA*dG*dG*dA*dT*dA*dA*dA*dA*kT*k[5mC]*k[5mC]; antisense) [compound 1074833] | 17
1076145 (k[5mC]*k[5mC]*kT*dT*dA*dT*dA*dG*dG*dT*dT*dA*dT*kA*kG*kT; antisense) [compound 1076145] | 41
